From US8076487B2, “Pyridone derivative and herbicide” (Kumiai Chemical Industry Co., Ltd., priority 2006, dated 2011)

Experiments:
Assay type in all cases: in vivo
[1] = system: velvetleaf (Abutilon theophrasti medicus); test: Test Example 3: herbicidal effect by application to upland field (foliage treatment); conditions: 14th day after application; for herbicidal effect, Velvetleaf: foliage treatment, 1,000 g active ingredient per 1 hectare, greenhouse; for herbicidal effect (index), Velvetleaf: foliage treatment, plants grown two weeks, 1,000 g active ingredient per hectare
How it was run: (§1)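 Two weeks after sowing in field soil under greenhouse conditions, seedlings receive a top-down foliar spray of wettable powder diluted in water at an active-ingredient rate of 1,000 g per hectare. Effect is rated against a standard 14 days post-treatment.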

[2] = system: barnyardgrass (Echinochloa crus-galli (L.) P. Beauv. var. crus-galli); test: as above; conditions: 14th day after application; for herbicidal effect, Barnyardgrass: foliage treatment, 1,000 g active ingredient per 1 hectare, greenhouse; for herbicidal effect (index), Barnyardgrass: foliage treatment, plants grown two weeks, 1,000 g active ingredient per hectare
How it was run: as §1

[3] = system: slender amaranth (Amaranthus viridis L.); test: as above; conditions: 14th day after application; for herbicidal effect, Slender Amaranth: foliage treatment, 1,000 g active ingredient per 1 hectare, greenhouse; for herbicidal effect (index), Slender Amaranth: foliage treatment, plants grown two weeks, 1,000 g active ingredient per hectare
How it was run: as §1

[4] = system: green foxtail (Setaria viridis (L.) P. Beauv.); test: as above; conditions: 14th day after application; for herbicidal effect, Green Foxtail: foliage treatment, 1,000 g active ingredient per 1 hectare, greenhouse; for herbicidal effect (index), Green Foxtail: foliage treatment, plants grown two weeks, 1,000 g active ingredient per hectare
How it was run: as §1

[5] = system: velvetleaf (Abutilon theophrasti medicus); test: Test Example 2: herbicidal effect by soil application to upland field; conditions: soil surface spray, upland field soil, 1,000 g active ingredient per hectare, 21st day after application
How it was run: (§2)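 A standard visual rating of herbicidal effect, made 21 days after treatment, gives the value. Treatment consisted of a uniform spray of water-diluted wettable powder on the soil covering newly sown seeds, equivalent to 1,000 g active ingredient and 1,000 liters per hectare.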

[6] = system: barnyardgrass (Echinochloa crus-galli (L.) P. Beauv. var. crus-galli); test: as above; conditions: soil surface spray, upland field soil, 1,000 g active ingredient per hectare, 21st day after application
How it was run: as §2

[7] = system: slender amaranth (Amaranthus viridis L.); test: as above; conditions: soil surface spray, upland field soil, 1,000 g active ingredient per hectare, 21st day after application
How it was run: as §2

[8] = system: green foxtail (Setaria viridis (L.) P. Beauv.); test: as above; conditions: soil surface spray, upland field soil, 1,000 g active ingredient per hectare, 21st day after application
How it was run: as §2

[9] = system: heartshape false pickerelweed (Monochoria vaginalis (Burm.f.) C.Presl); test: Test Example 1: herbicidal effect by soil application to paddy field; conditions: paddy field soil application; active ingredient 1,000 g per 1 hectare; wettable powder added dropwise to water surface the day after sowing; examined on the 21st day after application
How it was run: (§3)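 Under greenhouse conditions, seeds sown on puddled paddy soil in 100 cm2 pots under 3 cm of standing water received the test compound; injury was assessed with a standard scoring scheme three weeks (day 21) after treatment.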

[10] = system: early watergrass (Echinochloa oryzicola Vasing); test: as above; conditions: paddy field soil application; active ingredient 1,000 g per 1 hectare; wettable powder added dropwise to water surface the day after sowing; examined on the 21st day after application
How it was run: as §3

[11] = system: Japanese bulrush (Scirpus juncoides Roxb.); test: as above; conditions: paddy field soil application; active ingredient 1,000 g per 1 hectare; wettable powder added dropwise to water surface the day after sowing; examined on the 21st day after application
How it was run: as §3

| SMILES | herbicidal effect, Velvetleaf [1] | herbicidal effect, Barnyardgrass [2] | herbicidal effect, Slender Amaranth [3] | herbicidal effect, Green Foxtail [4] | herbicidal effect (index), Velvetleaf [5] | herbicidal effect (index), Barnyardgrass [6] | herbicidal effect (index), Slender Amaranth [7] | herbicidal effect (index), Green Foxtail [8] | herbicidal effect, Monochoria vaginalis (Burm. f.) C. Presl [9] | herbicidal effect, Echinochloa oryzicola Vasing [10] | herbicidal effect, Scirpus juncoides Roxb. [11] | herbicidal effect (index), Velvetleaf [1] | herbicidal effect (index), Barnyardgrass [2] | herbicidal effect (index), Slender Amaranth [3] | herbicidal effect (index), Green Foxtail [4] |
| --- | --- | --- | --- | --- | --- | --- | --- | --- | --- | --- | --- | --- | --- | --- | --- |
| CSCCn1c(C(F)(F)F)ccc(C(=O)C2=C(O)C3CCC(C3)C2=O)c1=O (stereo not shown) [III-28] | 5 (90% or more of herbicidal effect and crop phytotoxicity) | 5 (90% or more of herbicidal effect and crop phytotoxicity) | 5 (90% or more of herbicidal effect and crop phytotoxicity) | 5 (90% or more of herbicidal effect and crop phytotoxicity) | 5 (90% or more of herbicidal effect and crop phytotoxicity) | 5 (90% or more of herbicidal effect and crop phytotoxicity) | 5 (90% or more of herbicidal effect and crop phytotoxicity) | 5 (90% or more of herbicidal effect and crop phytotoxicity) | 5 (90% or more of herbicidal effect and crop phytotoxicity) | 5 (90% or more of herbicidal effect and crop phytotoxicity) | 5 (90% or more of herbicidal effect and crop phytotoxicity) | – | – | – | – |
| Cc1ccc(-n2c(C(F)(F)F)ccc(C(=O)C3=C(O)CCCC3=O)c2=O)cc1 [I-89] | – | – | – | – | 5 (90% or more of herbicidal effect and crop phytotoxicity) | 5 (90% or more of herbicidal effect and crop phytotoxicity) | 5 (90% or more of herbicidal effect and crop phytotoxicity) | 5 (90% or more of herbicidal effect and crop phytotoxicity) | 5 (90% or more of herbicidal effect and crop phytotoxicity) | 5 (90% or more of herbicidal effect and crop phytotoxicity) | 5 (90% or more of herbicidal effect and crop phytotoxicity) | 5 (90% or more of herbicidal effect and crop phytotoxicity) | 5 (90% or more of herbicidal effect and crop phytotoxicity) | 5 (90% or more of herbicidal effect and crop phytotoxicity) | 5 (90% or more of herbicidal effect and crop phytotoxicity) |
| Cn1ncc(C(=O)c2ccc(C(F)(F)F)n(C)c2=O)c1OC(=O)OCc1ccccc1 [IV-199] | 5 (90% or more of herbicidal effect and crop phytotoxicity) | 4 (70 to less than 90% of herbicidal effect and crop phytotoxicity) | 5 (90% or more of herbicidal effect and crop phytotoxicity) | 3 (50 to less than 70% of herbicidal effect and crop phytotoxicity) | 5 (90% or more of herbicidal effect and crop phytotoxicity) | 5 (90% or more of herbicidal effect and crop phytotoxicity) | 5 (90% or more of herbicidal effect and crop phytotoxicity) | 4 (70 to less than 90% of herbicidal effect and crop phytotoxicity) | 5 (90% or more of herbicidal effect and crop phytotoxicity) | 5 (90% or more of herbicidal effect and crop phytotoxicity) | 5 (90% or more of herbicidal effect and crop phytotoxicity) | – | – | – | – |
| Cn1ncc(C(=O)c2ccc(C(F)(F)F)n(CC3OCCO3)c2=O)c1O [IV-119] | 4 (70 to less than 90% of herbicidal effect and crop phytotoxicity) | 5 (90% or more of herbicidal effect and crop phytotoxicity) | 5 (90% or more of herbicidal effect and crop phytotoxicity) | 4 (70 to less than 90% of herbicidal effect and crop phytotoxicity) | 5 (90% or more of herbicidal effect and crop phytotoxicity) | 5 (90% or more of herbicidal effect and crop phytotoxicity) | 5 (90% or more of herbicidal effect and crop phytotoxicity) | 5 (90% or more of herbicidal effect and crop phytotoxicity) | 5 (90% or more of herbicidal effect and crop phytotoxicity) | 5 (90% or more of herbicidal effect and crop phytotoxicity) | 5 (90% or more of herbicidal effect and crop phytotoxicity) | – | – | – | – |
| N#CCCn1c(C(F)(F)F)ccc(C(=O)C2=C(O)CCCC2=O)c1=O [I-44] | – | – | – | – | 5 (90% or more of herbicidal effect and crop phytotoxicity) | 5 (90% or more of herbicidal effect and crop phytotoxicity) | 5 (90% or more of herbicidal effect and crop phytotoxicity) | 5 (90% or more of herbicidal effect and crop phytotoxicity) | 5 (90% or more of herbicidal effect and crop phytotoxicity) | 5 (90% or more of herbicidal effect and crop phytotoxicity) | 5 (90% or more of herbicidal effect and crop phytotoxicity) | 5 (90% or more of herbicidal effect and crop phytotoxicity) | 5 (90% or more of herbicidal effect and crop phytotoxicity) | 5 (90% or more of herbicidal effect and crop phytotoxicity) | 5 (90% or more of herbicidal effect and crop phytotoxicity) |
| CC(C)S(=O)(=O)Cn1c(C(F)(F)F)ccc(C(=O)C2=C(O)CCCC2=O)c1=O [I-54] | – | – | – | – | 5 (90% or more of herbicidal effect and crop phytotoxicity) | 5 (90% or more of herbicidal effect and crop phytotoxicity) | 5 (90% or more of herbicidal effect and crop phytotoxicity) | 4 (70 to less than 90% of herbicidal effect and crop phytotoxicity) | 5 (90% or more of herbicidal effect and crop phytotoxicity) | 5 (90% or more of herbicidal effect and crop phytotoxicity) | 5 (90% or more of herbicidal effect and crop phytotoxicity) | 5 (90% or more of herbicidal effect and crop phytotoxicity) | 5 (90% or more of herbicidal effect and crop phytotoxicity) | 5 (90% or more of herbicidal effect and crop phytotoxicity) | 5 (90% or more of herbicidal effect and crop phytotoxicity) |
| Cc1cc(Cn2c(C(F)(F)F)ccc(C(=O)C3=C(O)CCCC3=O)c2=O)on1 [I-128] | 5 (90% or more of herbicidal effect and crop phytotoxicity) | 5 (90% or more of herbicidal effect and crop phytotoxicity) | 5 (90% or more of herbicidal effect and crop phytotoxicity) | 4 (70 to less than 90% of herbicidal effect and crop phytotoxicity) | 5 (90% or more of herbicidal effect and crop phytotoxicity) | 5 (90% or more of herbicidal effect and crop phytotoxicity) | 5 (90% or more of herbicidal effect and crop phytotoxicity) | 4 (70 to less than 90% of herbicidal effect and crop phytotoxicity) | 5 (90% or more of herbicidal effect and crop phytotoxicity) | 5 (90% or more of herbicidal effect and crop phytotoxicity) | 5 (90% or more of herbicidal effect and crop phytotoxicity) | – | – | – | – |
| COc1ccc(-n2c(C(F)(F)F)ccc(C(=O)C3=C(O)CCCC3=O)c2=O)cc1Cl [I-110] | 4 (70 to less than 90% of herbicidal effect and crop phytotoxicity) | 5 (90% or more of herbicidal effect and crop phytotoxicity) | 5 (90% or more of herbicidal effect and crop phytotoxicity) | 3 (50 to less than 70% of herbicidal effect and crop phytotoxicity) | 5 (90% or more of herbicidal effect and crop phytotoxicity) | 5 (90% or more of herbicidal effect and crop phytotoxicity) | 5 (90% or more of herbicidal effect and crop phytotoxicity) | 4 (70 to less than 90% of herbicidal effect and crop phytotoxicity) | 5 (90% or more of herbicidal effect and crop phytotoxicity) | 5 (90% or more of herbicidal effect and crop phytotoxicity) | 5 (90% or more of herbicidal effect and crop phytotoxicity) | – | – | – | – |
